Laboratory results: PubChem BioAssay (NCI)
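1) Cells in 96-well plates. 2) Compound, 48 h, 5 concentrations. 3) Linear interpolation between surrounding doses. 4) Unreached endpoint = highest concentration. TGI: concentration producing complete growth inhibition.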

Experiments:
Assay in all cases: growth of human tumour cells (NCI), 48 h
[1] = system: HT29 colon
[2] = system: LOX IMVI melanoma
[3] = system: NCI-H522 lung
[4] = system: HS 578T breast
[5] = system: HCT-15 colon
[6] = system: OVCAR-4 ovarian
[7] = system: SK-OV-3 ovarian
[8] = system: MALME-3M melanoma
[9] = system: UO-31 renal
[10] = system: HL-60(TB) leukemia
[11] = system: SK-MEL-2 melanoma
[12] = system: SNB-75 CNS
[13] = system: OVCAR-8 ovarian
[14] = system: MDA-MB-435
[15] = system: 786-0 renal
[16] = system: SK-MEL-5 melanoma
[17] = system: K-562 leukemia
[18] = system: CCRF-CEM leukemia
[19] = system: MDA-MB-231 breast
[20] = system: OVCAR-3 ovarian
[21] = system: HOP-62 NSCLC
[22] = system: UACC-257 melanoma
[23] = system: NCI-H23 lung
[24] = system: SF-539 CNS
[25] = system: EKVX NSCLC
[26] = system: HOP-92 NSCLC
[27] = system: HCC-2998 colon
[28] = system: OVCAR-5 ovarian
[29] = system: PC-3 prostate
[30] = system: SW-620 colon
[31] = system: SN12C renal
[32] = system: KM12 colon
[33] = system: A549 NSCLC
[34] = system: SR leukemia
[35] = system: DU-145 prostate
[36] = system: MCF7 breast
[37] = system: RPMI-8226 leukemia
[38] = system: TK-10 renal
[39] = system: COLO 205 colon
[40] = system: MOLT-4 leukemia
[41] = system: SNB-19 CNS
[42] = system: SF-295 CNS
[43] = system: ACHN renal
[44] = system: SF-268 CNS
[45] = system: NCI/ADR-RES ovarian
[46] = system: NCI-H226 lung
[47] = system: U251 CNS
[48] = system: M14 melanoma
[49] = system: NCI-H460 lung
[50] = system: RXF 393 renal
[51] = system: HCT-116 colon
[52] = system: IGROV1 ovarian
[53] = system: CAKI-1 renal
[54] = system: A498 renal
[55] = system: SK-MEL-28 melanoma
[56] = system: T-47D breast
[57] = system: MDA-N
[58] = system: UACC-62 melanoma
[59] = system: BT-549 breast

Compound `COc1c(C)c2nc3ccccc3[nH]c2c2c(=O)ccnc12` has a TGI [1] of over 100 µM, a TGI [2] of over 100 µM and a TGI [3] of over 100 µM. It also gave a TGI [4] of 78.7 µM, a TGI [5] of over 100 µM and a TGI [6] of over 100 µM. The TGI [7] was over 100 µM, the TGI [8] was over 100 µM and the TGI [9] was over 100 µM. For the same compound, the TGI [10] was over 100 µM, the TGI [11] was over 100 µM and the TGI [12] was 35.1 µM. It also gave a TGI [13] of over 100 µM, a TGI [14] of over 100 µM and a TGI [15] of over 100 µM. The TGI [16] was over 100 µM, the TGI [17] was over 100 µM and the TGI [18] was over 100 µM. It also gave a TGI [19] of over 100 µM, a TGI [20] of over 100 µM and a TGI [21] of over 100 µM. The TGI [22] was over 100 µM, the TGI [23] was over 100 µM and the TGI [24] was over 100 µM. The TGI [25] was over 100 µM, the TGI [26] was over 100 µM and the TGI [27] was over 100 µM. For the same compound, the TGI [28] was over 100 µM, the TGI [29] was over 100 µM and the TGI [30] was over 100 µM. For the same compound, the TGI [31] was over 100 µM, the TGI [32] was over 100 µM and the TGI [33] was over 100 µM. It also gave a TGI [34] of over 100 µM, a TGI [35] of over 100 µM and a TGI [36] of over 100 µM. It also gave a TGI [37] of over 100 µM, a TGI [38] of over 100 µM and a TGI [39] of over 100 µM. The TGI [40] was over 100 µM, the TGI [41] was over 100 µM and the TGI [42] was over 100 µM. For the same compound, the TGI [43] was over 100 µM, the TGI [44] was over 100 µM and the TGI [45] was over 100 µM. The TGI [46] was over 100 µM, the TGI [47] was over 100 µM and the TGI [48] was over 100 µM. It also gave a TGI [49] of over 100 µM, a TGI [50] of 71.7 µM and a TGI [51] of over 100 µM. The TGI [52] was over 100 µM, the TGI [53] was over 100 µM and the TGI [54] was over 100 µM. It also gave a TGI [55] of over 100 µM, a TGI [56] of over 100 µM and a TGI [57] of over 100 µM.
`CC(C)(C)[Si](C)(C)OCC1OC(n2cnc3c(N)ncnc32)C(O[Si](C)(C)C(C)(C)C)C1O[Si](C)(C)C(C)(C)C` (configuration not stated) gave a TGI [1] of over 100 µM, a TGI [2] of 39.2 µM and a TGI [3] of 21.3 µM. The TGI [4] was 58.5 µM, the TGI [5] was over 100 µM and the TGI [8] was over 100 µM. For the same compound, the TGI [11] was 49.4 µM, the TGI [12] was 27.6 µM and the TGI [13] was 42 µM. It also gave a TGI [15] of 18.6 µM, a TGI [16] of 14.4 µM and a TGI [19] of 54.1 µM. For the same compound, the TGI [20] was 13.8 µM, the TGI [21] was 46 µM and the TGI [22] was over 100 µM. It also gave a TGI [25] of 64.7 µM, a TGI [26] of over 100 µM and a TGI [29] of 30 µM. It also gave a TGI [30] of over 100 µM, a TGI [31] of 34.9 µM and a TGI [33] of 48.5 µM. The TGI [34] was 86.7 µM, the TGI [35] was over 100 µM and the TGI [39] was over 100 µM. For the same compound, the TGI [40] was 12.8 µM, the TGI [42] was 62.3 µM and the TGI [43] was 27.2 µM. It also gave a TGI [44] of 56.5 µM, a TGI [58] of 51.6 µM and a TGI [45] of over 100 µM. The TGI [48] was 67.4 µM, the TGI [49] was 27.3 µM and the TGI [51] was 22.4 µM. For the same compound, the TGI [52] was over 100 µM, the TGI [56] was 46.4 µM and the TGI [57] was over 100 µM.
`O=C(N/N=C/c1ccco1)c1cc(I)cc(I)c1O` gave a TGI [1] of over 50 µM, a TGI [2] of over 50 µM and a TGI [3] of over 50 µM. The TGI [59] was over 50 µM, the TGI [4] was over 50 µM and the TGI [5] was over 50 µM. For the same compound, the TGI [6] was over 50 µM, the TGI [8] was over 50 µM and the TGI [9] was over 50 µM. The TGI [10] was 27.7 µM, the TGI [11] was 19.7 µM and the TGI [12] was over 50 µM. The TGI [13] was over 50 µM, the TGI [14] was over 50 µM and the TGI [15] was 37.4 µM. The TGI [16] was 34.4 µM, the TGI [17] was over 50 µM and the TGI [18] was over 50 µM. For the same compound, the TGI [23] was over 50 µM, the TGI [24] was 26 µM and the TGI [25] was 37.2 µM. The TGI [26] was over 50 µM, the TGI [28] was 40.9 µM and the TGI [29] was over 50 µM. For the same compound, the TGI [30] was over 50 µM, the TGI [31] was 38.7 µM and the TGI [33] was over 50 µM. For the same compound, the TGI [35] was over 50 µM, the TGI [36] was over 50 µM and the TGI [37] was 43 µM. The TGI [39] was 45.6 µM, the TGI [40] was over 50 µM and the TGI [41] was over 50 µM. The TGI [43] was over 50 µM, the TGI [44] was over 50 µM and the TGI [58] was over 50 µM. It also gave a TGI [45] of over 50 µM, a TGI [46] of 39.7 µM and a TGI [48] of over 50 µM. It also gave a TGI [50] of over 50 µM, a TGI [51] of over 50 µM and a TGI [52] of over 50 µM. The TGI [53] was over 50 µM, the TGI [54] was 32.8 µM and the TGI [55] was over 50 µM. For the same compound, the TGI [56] was over 50 µM and the TGI [57] was over 50 µM.
In the case of `COc1cc2c(/C=C3/C(=O)Nc4ccccc43)c(Cl)[nH]c2cc1C`, the TGI [1] is reported as 1.05 µM, the TGI [2] is reported as 15.4 µM and the TGI [3] is reported as 2.4 µM. It also gave a TGI [59] of 17.1 µM, a TGI [4] of over 100 µM and a TGI [5] of 11 µM. The TGI [6] was 21.1 µM, the TGI [7] was 0.141 µM and the TGI [9] was 20.7 µM. The TGI [10] was 3.34 µM, the TGI [11] was 25.4 µM and the TGI [12] was 17.9 µM. It also gave a TGI [13] of 12.6 µM, a TGI [15] of 13.9 µM and a TGI [16] of 1.42 µM. The TGI [17] was 24 µM, the TGI [18] was over 67.8 µM and the TGI [19] was 4.89 µM. The TGI [20] was over 39.9 µM, the TGI [21] was 26.4 µM and the TGI [22] was over 45.8 µM. For the same compound, the TGI [23] was 0.879 µM, the TGI [24] was 0.225 µM and the TGI [25] was 25.1 µM. It also gave a TGI [26] of 26.6 µM, a TGI [27] of 0.982 µM and a TGI [28] of 23.7 µM. The TGI [29] was 16.3 µM, the TGI [30] was 59 µM and the TGI [31] was 13.1 µM. The TGI [32] was 0.232 µM, the TGI [33] was 22.7 µM and the TGI [34] was 10.1 µM. It also gave a TGI [35] of 1.08 µM, a TGI [36] of 16.6 µM and a TGI [37] of 24.9 µM. It also gave a TGI [38] of 21.7 µM, a TGI [39] of 1.73 µM and a TGI [40] of 14.2 µM. The TGI [41] was 17.5 µM, the TGI [42] was 1.19 µM and the TGI [43] was 17.4 µM. For the same compound, the TGI [44] was 18.5 µM, the TGI [58] was 15.5 µM and the TGI [45] was 0.894 µM. The TGI [46] was over 100 µM, the TGI [47] was 10.9 µM and the TGI [48] was 17 µM. It also gave a TGI [49] of 15.7 µM, a TGI [50] of 24 µM and a TGI [51] of 11 µM. It also gave a TGI [52] of 1.1 µM, a TGI [53] of 23.6 µM and a TGI [54] of 19.8 µM. For the same compound, the TGI [55] was 29.6 µM, the TGI [56] was 41.1 µM and the TGI [57] was 0.0396 µM.
